The source of these data is ChEMBL document CHEMBL3046161, “Synthesis of potential antitubercular and antimicrobial s-triazine-based scaffolds via Suzuki cross-coupling reaction” (2013).

In assay [1] the test system is Aspergillus niger. The assay can be described thus: Antifungal activity against Aspergillus niger MTCC 282 assessed as growth inhibition after 48 hr by agar streak dilution method. The format is functional. To be noted: MTCC 282, 48 h.
The subject of assay [2] is Escherichia coli. Description: Antibacterial activity against Escherichia coli MTCC 739 assessed as growth inhibition after 24 hr by agar streak dilution method. To be noted: MTCC 739, 24 h. Format: functional.
Assay [3] deals with Aspergillus clavatus. Description: Antifungal activity against Aspergillus clavatus MTCC 1323 assessed as growth inhibition at 3.12 to 50 ug/mL after 24 hr by agar disk diffusion method. Format: functional.
The test system of assay [4] is Aspergillus clavatus. Description: Antifungal activity against Aspergillus clavatus MTCC 1323 assessed as growth inhibition after 48 hr by agar streak dilution method. The note with it: MTCC 1323, 48 h. Format: functional.
Assay [5] has as its system Escherichia coli. Description: Antibacterial activity against Escherichia coli MTCC 739 assessed as growth inhibition at 3.12 to 50 ug/mL after 24 hr by agar disk diffusion method. Format: functional.
Assay [6] relates to Candida albicans. Description: Antifungal activity against Candida albicans MTCC 183 assessed as growth inhibition at 3.12 to 50 ug/mL after 24 hr by agar disk diffusion method. Format: functional.
Assay [7] relates to Mycobacterium tuberculosis. The assay can be described thus: Antimycobacterial activity against Mycobacterium tuberculosis H37Rv assessed as growth inhibition at MIC after 12 to 28 days by Lowenstein and Jensen agar dilution method. The format is functional.
The test system of assay [8] is Salmonella typhi. Description: Antibacterial activity against Salmonella enterica subsp. enterica serovar Typhi MTCC 733 assessed as growth inhibition at 3.12 to 50 ug/mL after 24 hr by agar disk diffusion method. The format is functional.
Assay [9] relates to Proteus vulgaris. The assay can be described thus: Antibacterial activity against Proteus vulgaris MTCC 1771 assessed as growth inhibition after 24 hr by agar streak dilution method. To be noted: MTCC 1771, 24 h. Format: functional.
Assay [10] deals with Shigella flexneri. The assay can be described thus: Antibacterial activity against Shigella flexneri MTCC 1457 assessed as growth inhibition at 3.12 to 50 ug/mL after 24 hr by agar disk diffusion method. The format is functional.
The subject of assay [11] is Pseudomonas aeruginosa. Description: Antibacterial activity against Pseudomonas aeruginosa MTCC 741 assessed as growth inhibition at 3.12 to 50 ug/mL after 24 hr by agar disk diffusion method. Format: functional.
Assay [12] deals with Staphylococcus aureus. The assay can be described thus: Antibacterial activity against Staphylococcus aureus MTCC 96 assessed as growth inhibition at 3.12 to 50 ug/mL after 24 hr by agar disk diffusion method. The format is functional.
The subject of assay [13] is Staphylococcus aureus. The assay can be described thus: Antibacterial activity against Staphylococcus aureus MTCC 96 assessed as growth inhibition after 24 hr by agar streak dilution method. The format is functional. The note with it: MTCC 96, 24 h.
The test system of assay [14] is Klebsiella pneumoniae. The assay can be described thus: Antibacterial activity against Klebsiella pneumoniae MTCC 109 assessed as growth inhibition after 24 hr by agar streak dilution method. Format: functional. The note with it: MTCC 109, 24 h.
The subject of assay [15] is Bacillus cereus. The assay can be described thus: Antibacterial activity against Bacillus cereus MTCC 430 assessed as growth inhibition at 3.12 to 50 ug/mL after 24 hr by agar disk diffusion method. The format is functional.
The subject of assay [16] is Klebsiella pneumoniae. The assay can be described thus: Antibacterial activity against Klebsiella pneumoniae MTCC 109 assessed as growth inhibition at 3.12 to 50 ug/mL after 24 hr by agar disk diffusion method. Format: functional.
For assay [17], the system named is Pseudomonas aeruginosa. Description: Antibacterial activity against Pseudomonas aeruginosa MTCC 741 assessed as growth inhibition after 24 hr by agar streak dilution method. The note with it: MTCC 741, 24 h. Format: functional.
The test system of assay [18] is Mycobacterium tuberculosis. The assay can be described thus: Antimycobacterial activity against Mycobacterium tuberculosis H37Rv assessed as growth inhibition after 12 to 28 days by Lowenstein and Jensen agar dilution method. Format: functional.
The subject of assay [19] is Mycobacterium tuberculosis. The assay can be described thus: Antimycobacterial activity against Mycobacterium tuberculosis H37Rv assessed as growth inhibition measured within 10 days by BACTEC MGIT method. Format: functional. To be noted: 240 h.
In assay [20] the test system is Shigella flexneri. Description: Antibacterial activity against Shigella flexneri MTCC 1457 assessed as growth inhibition after 24 hr by agar streak dilution method. The format is functional. The note with it: MTCC 1457, 24 h.
Assay [21] has as its system Proteus vulgaris. The assay can be described thus: Antibacterial activity against Proteus vulgaris MTCC 1771 assessed as growth inhibition at 3.12 to 50 ug/mL after 24 hr by agar disk diffusion method. Format: functional.
Assay [22] has as its system Mycobacterium tuberculosis. The assay can be described thus: Antimycobacterial activity against Mycobacterium tuberculosis H37Rv assessed as growth inhibition at MIC measured within 10 days by BACTEC MGIT method. Format: functional.
The test system of assay [23] is Bacillus cereus. Description: Antibacterial activity against Bacillus cereus MTCC 430 assessed as growth inhibition after 24 hr by agar streak dilution method. Format: functional. The note with it: MTCC 430, 24 h.
The test system of assay [24] is Candida albicans. Description: Antifungal activity against Candida albicans MTCC 183 assessed as growth inhibition after 48 hr by agar streak dilution method. The format is functional. The note with it: MTCC 183, 48 h.
The subject of assay [25] is Aspergillus fumigatus. Description: Antifungal activity against Aspergillus fumigatus MTCC 343 assessed as growth inhibition at 3.12 to 50 ug/mL after 24 hr by agar disk diffusion method. The format is functional.
Assay [26] relates to Salmonella typhi. Description: Antibacterial activity against Salmonella enterica subsp. enterica serovar Typhi MTCC 733 assessed as growth inhibition after 24 hr by agar streak dilution method. To be noted: MTCC 733, 24 h. Format: functional.
The test system of assay [27] is Aspergillus fumigatus. The assay can be described thus: Antifungal activity against Aspergillus fumigatus MTCC 343 assessed as growth inhibition after 48 hr by agar streak dilution method. The format is functional. To be noted: MTCC 343, 48 h.
Assay [28] concerns Aspergillus niger. Description: Antifungal activity against Aspergillus niger MTCC 282 assessed as growth inhibition at 3.12 to 50 ug/mL after 24 hr by agar disk diffusion method. Format: functional.
Assay [29] deals with Proteus vulgaris. The assay can be described thus: Antibacterial activity against Proteus vulgaris MTCC 1771 assessed as growth inhibition at 100 ug/disk after 24 hr by agar disk diffusion method. The format is functional. To be noted: MTCC 1771, 24 h, read-out: IZ.
In assay [30] the test system is Klebsiella pneumoniae. Description: microbe, parasite or virus in culture. To be noted: MTCC 109, 24 h, read-out: IZ.
Description: Antibacterial activity against Klebsiella pneumoniae MTCC 109 assessed as growth inhibition at 100 ug/disk after 24 hr by agar disk diffusion method
The subject of assay [31] is Staphylococcus aureus. The assay can be described thus: Antibacterial activity against Staphylococcus aureus MTCC 96 assessed as growth inhibition at 100 ug/disk after 24 hr by agar disk diffusion method. The note with it: MTCC 96, 24 h, read-out: IZ.
For assay [32], the system named is Escherichia coli. The assay can be described thus: microbe, parasite or virus in culture. To be noted: MTCC 739, 24 h, read-out: IZ.
Description: Antibacterial activity against Escherichia coli MTCC 739 assessed as growth inhibition at 100 ug/disk after 24 hr by agar disk diffusion method
The subject of assay [33] is Bacillus cereus. The assay can be described thus: Antibacterial activity against Bacillus cereus MTCC 430 assessed as growth inhibition at 100 ug/disk after 24 hr by agar disk diffusion method. The format is functional. To be noted: MTCC 430, 24 h, read-out: IZ.
For assay [34], the system named is Shigella flexneri. The assay can be described thus: Antibacterial activity against Shigella flexneri MTCC 1457 assessed as growth inhibition at 100 ug/disk after 24 hr by agar disk diffusion method. Format: functional. The note with it: MTCC 1457, 24 h, read-out: IZ.
For assay [35], the system named is Pseudomonas aeruginosa. The assay can be described thus: microbe, parasite or virus in culture. The note with it: MTCC 741, 24 h, read-out: IZ.
Description: Antibacterial activity against Pseudomonas aeruginosa MTCC 741 assessed as growth inhibition at 100 ug/disk after 24 hr by agar disk diffusion method
In assay [36] the test system is Salmonella typhi. Description: Antibacterial activity against Salmonella enterica subsp. enterica serovar Typhi MTCC 733 assessed as growth inhibition at 100 ug/disk after 24 hr by agar disk diffusion method. The format is functional. The note with it: MTCC 733, 24 h, read-out: IZ.
The subject of assay [37] is Candida albicans. Description: Antifungal activity against Candida albicans MTCC 183 assessed as growth inhibition at 100 ug/disk after 24 hr by agar disk diffusion method. Format: functional. The note with it: MTCC 183, 24 h, read-out: IZ.
Assay [38] concerns Aspergillus niger. Description: Antifungal activity against Aspergillus niger MTCC 282 assessed as growth inhibition at 100 ug/disk after 24 hr by agar disk diffusion method. The format is functional. To be noted: MTCC 282, 24 h, read-out: IZ.
For assay [39], the system named is Aspergillus clavatus. The assay can be described thus: Antifungal activity against Aspergillus clavatus MTCC 1323 assessed as growth inhibition at 100 ug/disk after 24 hr by agar disk diffusion method. Format: functional. The note with it: MTCC 1323, 24 h, read-out: IZ.
Assay [40] concerns Aspergillus fumigatus. Description: Antifungal activity against Aspergillus fumigatus MTCC 343 assessed as growth inhibition at 100 ug/disk after 24 hr by agar disk diffusion method. Format: functional. The note with it: MTCC 343, 24 h, read-out: IZ.

Values after ≈ are worked out from the molar mass of the structure shown.

Consider `CC1CC(C)CN(c2nc(-c3ccc(NCC(=O)Nc4ccc(Br)cc4)cc3)nc(N3CC(C)CC(C)C3)n2)C1` (stereo unspecified), for which the MIC in the assay with Aspergillus niger [1] is 50 µg/mL (≈ 82.4 µM); in the assay on Escherichia coli [2], 25 µg/mL (≈ 41.2 µM); with Aspergillus clavatus [4] it was 50 µg/mL (≈ 82.4 µM); in the assay on Proteus vulgaris [9] it was 50 µg/mL (≈ 82.4 µM); with Staphylococcus aureus [13], 3.12 µg/mL (≈ 5.14 µM); with Klebsiella pneumoniae [14] it was 25 µg/mL (≈ 41.2 µM). Also, the MIC in the assay with Pseudomonas aeruginosa [17] worked out at 12.5 µg/mL (≈ 20.6 µM); in assay [18] it was 3.12 µg/mL (≈ 5.14 µM); in [19] it was 6.25 µg/mL (≈ 10.3 µM); with Shigella flexneri [20], 12.5 µg/mL (≈ 20.6 µM); in the assay with Bacillus cereus [23], 6.25 µg/mL (≈ 10.3 µM); with Candida albicans [24], 50 µg/mL (≈ 82.4 µM). Further, the minimum inhibitory concentration (MIC) with Salmonella typhi [26] came out at 25 µg/mL (≈ 41.2 µM); in the assay on Aspergillus fumigatus [27] it was 50 µg/mL (≈ 82.4 µM). The “inhibition zone (IZ)” value in the assay on Aspergillus clavatus [3] was 25 mm; with Escherichia coli [5] it was 19 mm; in the assay with Candida albicans [6] it was 13 mm; in the assay on Salmonella typhi [8], 20 mm; with Shigella flexneri [10], 22 mm; in the assay on Pseudomonas aeruginosa [11], 27 mm. Further, the “inhibition zone (IZ)” value in the assay with Staphylococcus aureus [12] was found to be 24 mm; with Bacillus cereus [15], 27 mm; in the assay with Klebsiella pneumoniae [16], 24 mm; with Proteus vulgaris [21], 13 mm; with Aspergillus fumigatus [25], 23 mm; with Aspergillus niger [28], 12 mm. The “growth inhibition (GI)” value in assay [7] and in [22] was 99% throughout.
Take `O=C(O)c1cn(C2CC2)c2cc(N3CCNCC3)c(F)cc2c1=O` [CIPROFLOXACIN]: the zone of inhibition at 100 µg/disc amounted to 31 mm with Proteus vulgaris [29]; 33 mm with Klebsiella pneumoniae [30]; 30 mm in the assay with Staphylococcus aureus [31]; 32 mm in the assay with Escherichia coli [32]; 31 mm in the assay on Bacillus cereus [33]; 32 mm in the assay on Shigella flexneri [34]. In addition, the zone of inhibition at 100 µg/disc was determined as 33 mm in the assay on Pseudomonas aeruginosa [35] and 30 mm with Salmonella typhi [36]. Further, the MIC was found to be 0.39 µg/mL (≈ 1.18 µM) with Proteus vulgaris [9]; 1.56 µg/mL (≈ 4.71 µM) with Staphylococcus aureus [13]; 0.78 µg/mL (≈ 2.35 µM) in the assay on Klebsiella pneumoniae [14]; 0.78 µg/mL (≈ 2.35 µM) with Pseudomonas aeruginosa [17]; 1.56 µg/mL (≈ 4.71 µM) in the assay with Shigella flexneri [20]; 0.39 µg/mL (≈ 1.18 µM) in the assay with Bacillus cereus [23]. In addition, in the assay with Salmonella typhi [26], the MIC was found to be 0.39 µg/mL (≈ 1.18 µM).
With `CC(=O)N1CCN(c2ccc(OCC3COC(Cn4ccnc4)(c4ccc(Cl)cc4Cl)O3)cc2)CC1` (stereo unspecified) [KETOCONAZOLE], the zone of inhibition at 100 µg/disc in the assay on Candida albicans [37] is 33 mm; in the assay on Aspergillus niger [38], 30 mm; in the assay with Aspergillus clavatus [39], 31 mm; with Aspergillus fumigatus [40] it was 29 mm. Further, the minimal inhibitory concentration (MIC) is 1.56 µg/mL (≈ 2.94 µM) in the assay on Aspergillus niger [1], 0.78 µg/mL (≈ 1.47 µM) in the assay with Aspergillus clavatus [4], 1.56 µg/mL (≈ 2.94 µM) with Candida albicans [24] and 0.78 µg/mL (≈ 1.47 µM) with Aspergillus fumigatus [27].
